Test results: publication PMC12794336, “Unconventional chalcogen-containing azolylidene metal complexes as potential anticancer therapeutics” (Chemical Science, 2025)

Experiments:
[1] = parameters: method as in PMID 21082862; details: cell line not stated; read-out: Cytotoxicity reported in the literature; cited from earlier work
[2] = tested on: A2780 ovarian cancer cell line; assay: Cytotoxicity, PrestoBlue assay, A2780; format: cell-based, human; details: 72 h, PrestoBlue; read-out: IC50 (µM) after 72 h, A2780
Experimental: (§1) counterpart, A2780cis, were procured from the European Collection of Cell
(§2) (ThermoFisher, USA) base medium supplemented with 10% Foetal Bovine
(§3) Serum (FBS; Sigma, Germany) and 1% of Penicillin-Streptomycin
(§4) (ThermoFisher, USA). Additionally, A2780cis cell line was cultured in the
(§5) drug. The human embryonic kidney cell line, HEK293T, and HeLa cell line were
(§6) obtained from American Type Culture Collection (ATCC, USA) and were cultured
(§7) in DMEM GlutaMAX (ThermoFisher, USA) base medium, supplemented with
(§8) 10% FBS and 1% of Penicillin-Streptomycin. All cell lines were maintained in a
(§9) humidified incubator at37 °C and 5% CO2.
(§10) 4.2. Cytotoxicity studies
(§11) cells/mL (A2780cis and HEK293T) was dispensed into flat bottom 96-well plates
(§12) and allowed to attach overnight. On the next day, 10 mM stock solutions of the
(§13) tested compounds were prepared in DMSO, then diluted with media to the final
(§14) concentration range of 0 - 100 µM and applied to the cells; 0.1% DMSO final
(§15) solution and 10 µM final concentration gambogic acid were used as negative and
(§16) positive controls, respectively. After 72 h incubation in a humidified incubator
(§17) under 5% CO2 at 37 °C, PrestoBlue™ cell viability reagent (Cat. No. A13262,
(§18) Invitrogen, USA) was added to cultures at a 1:10 ratio according to the
(§19) manufacturer instructions, and samples were incubated for 1.5 h. Fluorescence
(§20) at 560/590 nm was detected with Tecan Infinite 500 microplate reader (Tecan,
(§21) Switzerland). Three wells were assessed for each concentration of the tested
(§22) compounds and three independent experiments were performed. Non-linear
(§23) regression and IC50 value calculation were performed in GraphPad Prism 9 using
(§24) the build-in function “Dose response- Inhibition”.

[3] = tested on: A2780cis cells with acquired resistance to cisplatin; assay: Cytotoxicity, PrestoBlue assay, A2780cis; format: cell-based, human; details: 72 h, PrestoBlue; read-out: IC50 (µM) after 72 h, A2780cis
Experimental: as §1, §2, §3, §4, §5, §6, §7, §8, §9, §10, §11, §12, §13, §14, §15, §16, §17, §18, §19, §20, §21, §22, §23, §24

[4] = tested on: non-cancerous human embryonic kidney HEK293T cells; assay: Cytotoxicity, PrestoBlue assay, HEK293T; format: cell-based; details: 72 h, PrestoBlue; read-out: IC50 (µM) after 72 h, HEK293T
Experimental: as §1, §2, §3, §4, §5, §6, §7, §8, §9, §10, §11, §12, §13, §14, §15, §16, §17, §18, §19, §20, §21, §22, §23, §24

[5] = tested on: A2780, A2780cis and HEK293T cell lines; assay: Cytotoxicity stated jointly for all three cell lines; format: cell-based, human; details: HEK293T together, 72 h
Experimental: as §1, §2, §3, §4, §5, §6, §7, §8, §9, §10, §11, §12, §13, §14, §15, §16
under 5% CO2 at 37 °C, PrestoBlue™ cell viability reagent (Cat. No. A13262, […]
as §19, §20
Switzerland). Three wells were assessed for each concentration of the tested […]

[6] = n-octanol/water; cited from earlier work

Row | SMILES | IC50 [1] [µM] | IC50 [2] [µM] | IC50 [3] [µM] | IC50 [4] [µM] | IC50 [5] [µM] | logPOW [6]
1 | CCn1[c]([Au-][Cl])[n+](CC)c2ccccc21 [same complex bearing a chlorido ligand] | 6.4 ± 2 |  |  |  |  | 
2 | Cc1ccc(C(C)C)cc1.[Cl][Ru]([Cl])[PH]12CN3CN(CN(C3)C1)C2 [RAPTA-C, reference compound] |  | > 100 | > 100 | > 100 | > 100 | −1.8 (ref. [64])
